Measured values reported in patent publication US6849405B2, “Translation enhancer element of the human amyloid precursor protein gene” (The Brigham and Women's Hospital, Inc., priority 1997, dated 2005).
“Also recorded” adds a separate entry of the source.

Assays:
[1] = tested on: H-ferritin subunit synthesis; test: H-ferritin subunit synthesis, [35S]-methionine labeling and immunoprecipitation, primary astrocytes; format: cell-based; conditions: primary human fetal astrocytes, 0.5 ng/ml, 16 hours
[2] = tested on: L-ferritin subunit synthesis; test: L-ferritin subunit synthesis, [35S]-methionine labeling and immunoprecipitation, primary astrocytes; format: cell-based; conditions: primary human fetal astrocytes, 0.5 ng/ml, 16 hours
[3] = tested on: ACT-mRNA; test: Northern blot of ACT-mRNA, astrocytoma cells; format: cell-based, human; conditions: astrocytoma cells, 16 hours of IL-1 stimulation, 48 hours blot exposure
Procedure: Total RNA (10 μg) was extracted from primary astrocytes and astrocytoma cells with a RNA-STAT kit (Tel-Test). RNA samples were denatured in 50% formamide/2.2 M formaldehyde/20 mM MOPS/5 mM sodium acetate/0.5 mM EDTA, pH 7.4, at 60° C. for 10 minutes, electrophoresed on 1.0% agarose-formaldehyde gels, blotted onto Hybond-N filters and immobilized by UV crosslinking and heating filters to 80° C. Filters were prehybridized for 3 hours and hybridized overnight in a solution consisting of 50% formamide, […] denatured salmon sperm DNA, 5×SSC, 0.1% sodium dodecyl sulfate and 5×Denhardt's solution. Following hybridization, filters were washed twice for a total of 1 hour in 2×SSC/0.2% sodium dodecyl sulfate at room temperature and twice each for a total of 1 hour in 0.5×SSC/0.1% sodium dodecyl sulfate at 55° C. Equal loading was verified by ethidium bromide staining, non-specific hybridization of the ACT probe to the 28S rRNA, and by standardized hybridization to the GAPDH cDNA probe as an internal standard. The APP cDNA probe corresponded to the unique internal 1 kb fragment gel purified from the 3 kb APP cDNA (Kang et al. Nature 325: 733 (1987)), the ACT cRNA probe to a PstI/SacI fragment (536-943) in the human ACT cDNA (Chandra, et al., Biochemistry 22: 5055 (1983)) and the GAPDH probe to the human GAPDH gene (Tokunaga, et al., Cancer Res. 47: 5616 (1987)).

[4] = tested on: APP protein at the site of the lesion; conditions: injected into rat cerebral cortex; cited from earlier work

interleukin-1 [IL-1]
up regulation in H-ferritin subunit synthesis [1]: 4 fold
up regulation in L-ferritin subunit synthesis [2]: 25%
induction in steady-state levels of ACT-mRNA [3]: 6 fold
steady-state levels of APP protein at the site of the lesion [4]: increase the steady-state level of APP-protein; also recorded: increases the steady-state levels of APP protein
